{"source": "ChEMBL document CHEMBL1129675", "about": "“New directions in antibacterial research” (1996)", "key": {"Mus musculus [1]": {"species": "Mus musculus", "experiment": "Inhibitory activity against Staphylococcus aureus in mice", "type": "functional"}, "Mus musculus [2]": {"species": "Mus musculus", "experiment": "Inhibitory activity against Streptococcus pyogenes in mice", "type": "functional"}, "Mus musculus [3]": {"species": "Mus musculus", "experiment": "Inhibitory activity against Streptococcus pneumoniae in mice", "type": "functional"}, "Staphylococcus aureus [4]": {"system": "Staphylococcus aureus", "experiment": "Inhibitory activity against MRSA", "type": "functional"}, "Enterococcus faecalis [5]": {"system": "Enterococcus faecalis", "experiment": "Inhibitory activity against VanA strain of E. faecalis; Range is 0.03-2 ug/mL"}, "Streptococcus pneumoniae [6]": {"system": "Streptococcus pneumoniae", "experiment": "Inhibitory activity against Streptococcus pneumoniae", "type": "functional"}, "[7]": {"experiment": "Inhibitory activity against VanB enterococci; Range is 0.016-1 ug/mL", "type": "functional"}, "Streptococcus pyogenes": {"system": "Streptococcus pyogenes", "experiment": "Inhibitory activity against Streptococcus pyogenes", "type": "functional"}, "Enterococcus faecium [8]": {"system": "Enterococcus faecium", "experiment": "Inhibitory activity against VanA strain of E. faecium; Range is 0.03-2 ug/mL", "type": "functional"}, "Enterococcus faecium [9]": {"system": "Enterococcus faecium", "experiment": "Inhibitory activity against strain of Enterococcus faecium", "type": "functional"}, "Enterococcus faecalis [10]": {"system": "Enterococcus faecalis", "experiment": "Inhibitory activity against strain of Enterococcus faecalis", "type": "functional"}, "Staphylococcus sp. [11]": {"system": "Staphylococcus sp.", "experiment": "Inhibitory activity against Staphylococci", "type": "functional"}, "Streptococcus sp. [12]": {"system": "Streptococcus sp.", "experiment": "Inhibitory activity against all group A and B Streptococci", "type": "functional"}, "Staphylococcus aureus [13]": {"system": "Staphylococcus aureus", "experiment": "Inhibitory activity against ciprofloxacin-resistant Staphylococcus aureus", "type": "functional"}, "Bacteroides fragilis": {"system": "Bacteroides fragilis", "experiment": "Inhibitory activity against strain of Bacteroides fragilis", "type": "functional"}, "Streptococcus pneumoniae [14]": {"system": "Streptococcus pneumoniae", "experiment": "Inhibitory activity against penicillin-resistant Streptococcus pneumoniae", "type": "functional"}, "Staphylococcus aureus [15]": {"system": "Staphylococcus aureus", "experiment": "Inhibitory activity against strain of Staphylococcus aureus", "type": "functional"}, "Pseudomonas aeruginosa": {"system": "Pseudomonas aeruginosa", "experiment": "Inhibitory activity against ciprofloxacin-resistant Pseudomonas aeruginosa", "type": "functional"}, "Enterococcus faecium [16]": {"system": "Enterococcus faecium", "experiment": "Inhibitory activity against vancomycin-resistant Enterococcus faecium", "type": "functional"}, "Streptococcus sp. [17]": {"system": "Streptococcus sp.", "experiment": "In vitro inhibitory activity against Streptococci; Range is 0.06-0.25 ug/mL", "type": "functional"}, "Enterococcus faecalis [18]": {"system": "Enterococcus faecalis", "experiment": "In vitro inhibitory activity against Enterococcus faecalis", "type": "functional"}, "Serratia marcescens": {"system": "Serratia marcescens", "experiment": "In vitro inhibitory activity against Serratia marcescens", "type": "functional"}, "Providencia sp.": {"system": "Providencia sp.", "experiment": "In vitro inhibitory activity against Providencia species", "type": "functional"}, "Citrobacter freundii": {"system": "Citrobacter freundii", "experiment": "In vitro inhibitory activity against Citrobacter freundii", "type": "functional"}, "Staphylococcus aureus [19]": {"system": "Staphylococcus aureus", "experiment": "In vitro inhibitory activity against ciprofloxacin resistant MRSA", "type": "functional"}, "Enterobacter": {"system": "Enterobacter", "experiment": "In vitro inhibitory activity against Enterobacteriaceae; Range is 0.016-0.5 ug/mL", "type": "functional"}, "[20]": {"system": "Staphylococcus epidermidis", "experiment": "Inhibitory activity against Staphylococcus epidermidis", "type": "functional"}, "Staphylococcus aureus [21]": {"system": "Staphylococcus aureus", "experiment": "Inhibitory activity against Staphylococcus aureus", "type": "functional"}, "Enterococcus faecalis [22]": {"system": "Enterococcus faecalis", "experiment": "Inhibitory activity against strain of E. faecalis; Range is 0.25-2 ug/mL", "type": "functional"}, "Streptococcus pneumoniae [23]": {"system": "Streptococcus pneumoniae", "experiment": "Inhibitory activity against S. pneumoniae; Range is 0.12-0.25 ug/mL", "type": "functional"}, "Staphylococcus sp. [24]": {"system": "Staphylococcus sp.", "experiment": "Inhibitory activity against ciprofloxacin resistant staphylococci; Range is 2-8 ug/mL", "type": "functional"}, "Bacteria": {"system": "Bacteria", "experiment": "Inhibitory activity against vancomycin-sensitive Gram-positive bacteria", "type": "functional"}, "Enterococcus faecalis [25]": {"system": "Enterococcus faecalis", "experiment": "Inhibitory activity against VanA strain of E. faecalis; Range is 2-64 ug/mL", "type": "functional"}, "Enterococcus": {"system": "Enterococcus", "experiment": "Inhibitory activity against vancomycin-resistant enterococci", "type": "functional"}, "Enterococcus faecium [26]": {"system": "Enterococcus faecium", "experiment": "Inhibitory activity against VanA strain of E. faecium; Range is 2-64 ug/mL", "type": "functional"}, "Enterococcus faecalis [27]": {"system": "Enterococcus faecalis", "experiment": "Inhibitory activity against strain of Enterococcus faecalis resistant to both vancomycin and teicoplanin"}, "Enterococcus faecium [28]": {"system": "Enterococcus faecium", "experiment": "Inhibitory activity against VanA strain of E. faecium; Range is 64-2108 ug/mL", "type": "functional"}, "Enterococcus faecium [29]": {"system": "Enterococcus faecium", "experiment": "Inhibitory activity against strain of Enterococcus faecium resistant to both vancomycin and teicoplanin", "type": "functional"}}}
{"smiles": "CNC(=O)C[C@@H]1NC(=O)c2csc(n2)-c2ccc(-c3nc(C4=N[C@H](C(=O)N5CCC[C@H]5C(N)=O)CO4)cs3)nc2-c2csc(n2)-c2csc(n2)[C@H]([C@@H](O)c2ccccc2)NC(=O)CNC(=O)c2nc(sc2COC)[C@H](C(C)C)NC(=O)c2nc1sc2C", "values": [{"measurement": "ED50", "setting": "Mus musculus [1]", "value": 1.8, "unit": "mg/kg"}, {"measurement": "ED50", "setting": "Mus musculus [2]", "value": 9.1, "unit": "mg/kg"}, {"measurement": "ED50", "setting": "Mus musculus [3]", "value": 15.2, "unit": "mg/kg"}]}
{"smiles": "CCCCCOc1ccc(CN[C@@]2(C)C[C@@H](O[C@H]3[C@H](Oc4c5cc6cc4Oc4ccc(cc4Cl)[C@@H](C[C@H]4C[C@](C)(N)[C@@H](O)[C@H](C)O4)[C@]4(C)NC(=O)[C@H](NC(=O)[C@@H]6NC(=O)[C@H](CC(N)=O)NC(=O)[C@H](NC(=O)[C@@H](CC(C)C)NC)[C@H](O)c6ccc(c(Cl)c6)O5)c5ccc(O)c(c5)-c5c(O)cc(O)cc5[C@@H](C(=O)O)NC4=O)O[C@H](CO)[C@@H](O)[C@@H]3O)O[C@@H](C)[C@@H]2O)cc1", "values": [{"measurement": "MIC", "setting": "Staphylococcus aureus [4]", "value": "≤ 0.5", "unit": "µg/mL"}, {"measurement": "MIC", "setting": "Enterococcus faecalis [5]", "value": 0.03, "unit": "µg/mL"}, {"measurement": "MIC", "setting": "Streptococcus pneumoniae [6]", "value": "< 0.008", "unit": "µg/mL"}, {"measurement": "MIC", "setting": "[7]", "value": 0.016, "unit": "µg/mL"}, {"measurement": "MIC", "setting": "Streptococcus pyogenes", "value": "< 0.06", "unit": "µg/mL"}, {"measurement": "MIC", "setting": "Enterococcus faecium [8]", "value": 0.03, "unit": "µg/mL"}]}
{"smiles": "N[C@@H]1CN(c2c(F)cc3c(=O)c(C(=O)O)cn(C4C[C@@H]4F)c3c2Cl)CC12CC2", "note": "(single isomer, unassigned) [SITAFLOXACIN ANHYDROUS]", "values": [{"measurement": "MIC90", "setting": "Staphylococcus aureus [4]", "value": 1, "unit": "µg/mL"}, {"measurement": "MIC90", "setting": "Enterococcus faecium [9]", "value": 0.5, "unit": "µg/mL"}, {"measurement": "MIC90", "setting": "Enterococcus faecalis [10]", "value": 1, "unit": "µg/mL"}, {"measurement": "MIC90", "setting": "Staphylococcus sp. [11]", "value": "≤ 0.06", "unit": "µg/mL"}, {"measurement": "MIC90", "setting": "Streptococcus sp. [12]", "value": "≤ 0.125", "unit": "µg/mL"}]}
{"smiles": "Cc1c(N2CC[C@H](N)C2)c(F)cn2c(=O)c(C(=O)O)cc(C3CC3)c12", "note": "[ABT-719]", "values": [{"measurement": "MIC90", "setting": "Staphylococcus aureus [13]", "value": 0.25, "unit": "µg/mL"}, {"measurement": "MIC90", "setting": "Bacteroides fragilis", "value": 0.06, "unit": "µg/mL"}, {"measurement": "MIC90", "setting": "Streptococcus pneumoniae [14]", "value": 0.03, "unit": "µg/mL"}, {"measurement": "MIC90", "setting": "Staphylococcus aureus [15]", "value": 0.015, "unit": "µg/mL"}, {"measurement": "MIC90", "setting": "Pseudomonas aeruginosa", "value": 2, "unit": "µg/mL"}, {"measurement": "MIC90", "setting": "Enterococcus faecium [16]", "value": 0.5, "unit": "µg/mL"}]}
{"smiles": "NC1CCN(c2c(F)cc3c(=O)c(C(=O)O)cn(C4CC4)c3c2Cl)C1", "note": "(centres undefined) [CLINAFLOXACIN]", "values": [{"measurement": "MIC90", "setting": "Streptococcus sp. [17]", "value": 0.06, "unit": "µg/mL"}, {"measurement": "MIC90", "setting": "Enterococcus faecalis [18]", "value": 0.5, "unit": "µg/mL"}, {"measurement": "MIC90", "setting": "Serratia marcescens", "value": 0.5, "unit": "µg/mL"}, {"measurement": "MIC90", "setting": "Providencia sp.", "value": 0.5, "unit": "µg/mL"}, {"measurement": "MIC90", "setting": "Citrobacter freundii", "value": 0.5, "unit": "µg/mL"}, {"measurement": "MIC90", "setting": "Staphylococcus aureus [19]", "value": 1, "unit": "µg/mL"}, {"measurement": "MIC90", "setting": "Enterobacter", "value": 0.016, "unit": "µg/mL"}]}
{"smiles": "CCN(CC)CCS(=O)(=O)[C@@H]1CCN2C(=O)c3coc(n3)CC(=O)C[C@H](O)/C=C(C)/C=C/CNC(=O)/C=C/[C@@H](C)[C@@H](C(C)C)OC(=O)[C@@H]12", "note": "[DALFOPRISTIN]", "values": [{"measurement": "MIC90", "setting": "[20]", "value": 0.5, "unit": "µg/mL"}, {"measurement": "MIC90", "setting": "Staphylococcus aureus [21]", "value": 1, "unit": "µg/mL"}]}
{"smiles": "N[C@@H]1[C@H]2CN(c3nc4c(cc3F)c(=O)c(C(=O)O)cn4-c3ccc(F)cc3F)C[C@@H]12", "note": "[TROVAFLOXACIN]", "values": [{"measurement": "MIC", "setting": "Enterococcus faecalis [22]", "value": 0.25, "unit": "µg/mL"}, {"measurement": "MIC", "setting": "Streptococcus pneumoniae [23]", "value": 0.12, "unit": "µg/mL"}, {"measurement": "MIC", "setting": "Staphylococcus sp. [24]", "value": 2, "unit": "µg/mL"}]}
{"smiles": "CN[C@H](CC(C)C)C(=O)N[C@H]1C(=O)N[C@@H](CC(N)=O)C(=O)N[C@H]2C(=O)N[C@H]3C(=O)N[C@](C)(C(=O)N[C@H](C(=O)O)c4cc(O)cc(O)c4-c4cc3ccc4O)[C@H](C[C@H]3C[C@](C)(N)[C@@H](O)[C@H](C)O3)c3ccc(c(Cl)c3)Oc3cc2cc(c3O[C@@H]2O[C@H](CO)[C@@H](O)[C@H](O)[C@H]2O[C@@H]2C[C@](C)(N)[C@@H](O)[C@H](C)O2)Oc2ccc(cc2Cl)[C@H]1O", "note": "[VANCOMYCIN DERIVATIVE (EPIVANCOMYCIN LINKED WITH ADDITIONAL AMINO SUGAR)]", "values": [{"measurement": "MIC", "setting": "Bacteria", "value": 32, "unit": "µg/mL"}, {"measurement": "MIC", "setting": "Enterococcus faecalis [25]", "value": 2, "unit": "µg/mL"}, {"measurement": "MIC", "setting": "Enterococcus", "value": 500, "unit": "µg/mL"}, {"measurement": "MIC", "setting": "Enterococcus faecium [26]", "value": 2, "unit": "µg/mL"}]}
{"smiles": "CN[C@H](CC(C)C)C(=O)N[C@H]1C(=O)N[C@@H](CC(N)=O)C(=O)N[C@H]2C(=O)N[C@H]3C(=O)N[C@H](C(=O)N[C@H](C(=O)O)c4cc(O)cc(O)c4-c4cc3ccc4O)[C@H](O)c3ccc(c(Cl)c3)Oc3cc2cc(c3O[C@@H]2O[C@H](CO)[C@@H](O)[C@H](O)[C@H]2O[C@H]2C[C@](C)(N)[C@H](O)[C@H](C)O2)Oc2ccc(cc2Cl)[C@H]1O", "note": "[VANCOMYCIN]", "values": [{"measurement": "MIC", "setting": "Enterococcus faecalis [27]", "value": "≥ 128", "unit": "µg/mL"}, {"measurement": "MIC", "setting": "Enterococcus faecium [28]", "value": 64, "unit": "µg/mL"}, {"measurement": "MIC", "setting": "Enterococcus faecium [29]", "value": "≥ 128", "unit": "µg/mL"}]}
